In the test the test system is cyclooxygenase 2 protein. Kind of test: LPS-induced cyclooxygenase 2 protein expression in RAW264.7 cells (Western blot). Format: cell-based. The note with it: 50 μl of 10 mM solution per 5 ml, added 0 or 6 hours before LPS. On the procedure:
(1) RAW264.7 cells (ATCC TIB 71) were suspended in Dulbecco's modified Eagle's medium (Bio Whittaker, 12-604F) containing 10% fetal calf serum (Gibco) at a concentration of 3×10^5 cells/ml. 5 ml of the suspension was added to each well of a 6-well microtiter plate and the plate was incubated at 37° C. overnight in the presence of 5% CO2. 50 μl of a solution containing agarobiose or agarohexaose at a concentration of 10 mM in water was added to the well. The plate was incubated for 0 or 6 hours. 50 μl of a solution containing lipopolysaccharide (LPS, Sigma, L-2012) at a concentration of 100 μg/ml in water was added to the well. The plate was incubated for additional 12 hours. The cells were recovered by detaching the cells from the plate using a scraper and suspended in phosphate buffered saline containing 1 μg/ml pepstatin A (Sigma, P5318), 1 μg/ml leupeptin (Sigma, L2884), 1 mM phenylmethylsulfonyl fluoride (Nacalai Tesque, 273-27), 10 mM ethylenediaminetetraacetic acid disodium salt and 0.1% Triton X-100. A supernatant obtained by centrifuging the suspension after freezing and thawing was used as a protein fraction. The content of protein in the protein fraction was determined using Micro BCA Protein Assay Reagent (a product of Pierce sold by Takara Shuzo, P7411). […]
(A western blot detects proteins with antibodies after separation by electrophoresis.)

Structures are written as SMILES.

Regarding `OCC1OC(OC2C3COC2C(O)C(OC2C(O)C(CO)OC(OC4C5COC4C(O)C(OC4C(O)C(CO)OC(OC6C7COC6C(O)C(O)O7)C4O)O5)C2O)O3)C(O)C(O)C1O` (centres unmarked) [Agarohexaose, agarohexaose], the “increase in cyclooxygenase 2 protein expression induced by LPS” value is listed as “not suppressed”.

With `OC[C@H]1O[C@@H](O[C@H]2[C@H]3OC[C@@H]2OC(O)[C@H]3O)[C@H](O)[C@@H](O)[C@H]1O` (mixture of isomers) [Agarobiose, agarobiose], the “increase in cyclooxygenase 2 protein expression induced by LPS” value was “not suppressed”.
